Results reported in patent publication US9029359B2, “Heteroaryl Btk inhibitors” (Biogen Idec MA, Inc., priority 2009, dated 2015).

Target: T1, BTK (Homo sapiens, UniProt Q06187)
T1 construct: purchased Upstate 14-552
Test: In vitro BTK kinase assay: BTK-POLYGAT-LS ASSAY
Assay type: biochemical
Settings: ATP 10 uM
Outline: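 BTK phosphorylation of polyGAT (100 nM final) with ATP at 10 μM final, 10 mM Tris-HCl pH 7.5 kinase buffer, quenched by EDTA after 30 min. Potency given as IC50.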

T1 sequence (Q06187 whole entry): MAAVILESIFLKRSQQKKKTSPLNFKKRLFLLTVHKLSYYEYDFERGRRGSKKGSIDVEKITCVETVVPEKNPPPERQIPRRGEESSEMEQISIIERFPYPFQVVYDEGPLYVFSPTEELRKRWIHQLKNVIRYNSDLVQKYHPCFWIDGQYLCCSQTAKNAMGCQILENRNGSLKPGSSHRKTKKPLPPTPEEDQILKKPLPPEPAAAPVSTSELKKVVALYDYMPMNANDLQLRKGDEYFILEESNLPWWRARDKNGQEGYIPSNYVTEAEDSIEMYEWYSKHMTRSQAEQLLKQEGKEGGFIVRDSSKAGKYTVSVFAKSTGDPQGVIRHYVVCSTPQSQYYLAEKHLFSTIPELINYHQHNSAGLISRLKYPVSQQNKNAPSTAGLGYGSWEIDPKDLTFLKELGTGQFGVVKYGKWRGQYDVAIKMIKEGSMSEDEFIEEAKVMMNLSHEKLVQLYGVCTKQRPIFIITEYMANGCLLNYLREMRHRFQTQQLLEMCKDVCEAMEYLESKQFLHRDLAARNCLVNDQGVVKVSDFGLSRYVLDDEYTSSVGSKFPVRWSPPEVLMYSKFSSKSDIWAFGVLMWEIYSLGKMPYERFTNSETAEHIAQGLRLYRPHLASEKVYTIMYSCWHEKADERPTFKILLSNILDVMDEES

SMILES	IC50 [nM]
O=C(CNc1cccc(-c2nnn[nH]2)c1)N[C@@H]1CCCN(c2ncnc3[nH]ccc23)C1 [Example 400]	1000 to 10000
CC(C)CC[C@@H](Nc1ccccc1)C(=O)N[C@@H]1CCCN(c2ncnc3[nH]ccc23)C1 [Example 122, (R)—N—((R)-1-(7H-pyrrolo[2,3-d]pyrimidin-4-yl)piperidin-3-yl)-5-methyl-2-(phenylamino)hexanamide]	1000 to 10000
Cc1c(NCC(=O)NC2CCCN(c3ncnc4[nH]ccc34)C2)cccc1C(F)(F)F (centres unmarked) [Example 64, (N-(1-(7H-pyrrolo[2,3-d]pyrimidin-4-yl)piperidin-3-yl)-2-(2-methyl-3-(trifluoromethyl)phenylamino)acetamide)]	100 to 999
CCNc1cc(N2CCC[C@@H](NC(=O)CNc3cc(Cl)cc(Cl)c3)C2)ncn1 [Example 143, (R)-2-(3,5-dichlorophenylamino)-N-(1-(6-(ethylamino)pyrimidin-4-yl)piperidin-3-yl)acetamide]	1000 to 10000
O=C(CNc1cc(C(F)(F)F)ccc1N1CCCC1)N[C@@H]1CCCN(c2ncnc3[nH]ccc23)C1 [Example 278]	100 to 999
CS(=O)(=O)c1ccccc1NCC(=O)N[C@@H]1CCCN(c2ncnc3[nH]ccc23)C1 [Example 450]	1000 to 10000
CCC[C@@H](Nc1ccccc1)C(=O)N[C@@H]1CCCN(c2ncnc3[nH]ccc23)C1 [Example 257]	100 to 999
CCOc1ccc(OCC)c(NCC(=O)N[C@@H]2CCCN(c3ncnc4[nH]ccc34)C2)c1 [Example 414]	1000 to 10000
O=C(CNc1ccccc1)N(CCN1CCOCC1)C1CCCN(c2ncnc3[nH]ccc23)C1 (centres unmarked) [Example 323]	100 to 999
O=C(CNc1ccc(Cl)cc1F)N[C@@H]1CCCN(c2ncnc3[nH]ccc23)C1 [Example 418]	1000 to 10000
C[C@@H](Nc1ccccc1)C(=O)N[C@@H]1CCCN(c2ncnc3[nH]ccc23)C1 [Example 100, (R)—N—((R)-1-(7H-pyrrolo[2,3-d]pyrimidin-4-yl)piperidin-3-yl)-2-(phenylamino)propanamide]	100 to 999
CC(C)(C)c1ccc(C(=O)NCC(=O)NC2CCCN(c3ncnc4[nH]ccc34)C2)cc1 (centres unmarked) [Example 95, (N-(2-(1-(7H-pyrrolo[2,3-d]pyrimidin-4-yl)piperidin-3-ylamino)-2-oxoethyl)-4-tert-butylbenzamide)]	100 to 999
Cc1ccc(NCC(=O)N[C@@H]2CCCN(c3ncnc4[nH]ccc34)C2)cc1C [Example 258]	100 to 999
CCc1cccc(C)c1NCC(=O)N[C@@H]1CCCN(c2ncnc3[nH]ccc23)C1 [Example 403]	1000 to 10000
CC(C)(C)Oc1ccccc1NCC(=O)N[C@@H]1CCCN(c2ncnc3[nH]ccc23)C1 [Example 384]	100 to 999
CC(O)c1cccc(NCC(=O)N[C@@H]2CCCN(c3ncnc4[nH]ccc34)C2)c1 (some centres unmarked) [Example 397]	1000 to 10000
Cc1cccc(C)c1NCC(=O)N[C@@H]1CCCN(c2ncnc3[nH]ccc23)C1 [Example 421]	1000 to 10000
CC(C)Oc1ccccc1NCC(=O)N[C@@H]1CCCN(c2ncnc3[nH]ccc23)C1 [Example 248]	100 to 999
COc1cccc(NCC(=O)NC2CCCN(c3nccc4[nH]ccc34)C2)c1OC (centres unmarked) [Example 340]	> 10000
Cc1cccc(NCC(=O)NC2CCCN(c3ncnc4[nH]ccc34)C2)c1 (centres unmarked) [Example 31, (N-(1-(7H-pyrrolo[2,3-d]pyrimidin-4-yl)piperidin-3-yl)-2-(m-tolylamino)acetamide)]	100 to 999

SMILES	IC50 [nM]
O=C(CNc1cccc(-c2cnco2)c1)N[C@@H]1CCCN(c2ncnc3[nH]ccc23)C1 [Example 435]	1000 to 10000
CCC[C@@H](Nc1ccccc1C(C)C)C(=O)N[C@@H]1CCCN(c2ncnc3[nH]ncc23)C1 [Example 376]	100 to 999
O=C(CNc1cccc(OC2CCCC2)c1)N[C@@H]1CCCN(c2ncnc3[nH]ccc23)C1 [Example 281]	100 to 999
O=C(CNc1cccc2[nH]ncc12)NC1CCCN(c2ncnc3[nH]ccc23)C1 (centres unmarked) [Example 76, (2-(1H-indazol-4-ylamino)-N-(1-(7H-pyrrolo[2,3-d]pyrimidin-4-yl)piperidin-3-yl)acetamide)]	100 to 999
O=C(CNc1cccc2ncccc12)N[C@@H]1CCCN(c2ncnc3[nH]ccc23)C1 [Example 405]	1000 to 10000
O=C(CNC1c2ccccc2-c2ccccc21)N[C@@H]1CCCN(c2ncnc3[nH]ccc23)C1 [Example 459]	1000 to 10000
O=C(CNc1cccc(Oc2ccccc2)c1)NC1CCCN(c2ncnc3[nH]ccc23)C1 (centres unmarked) [Example 42, (N-(1-(7H-pyrrolo[2,3-d]pyrimidin-4-yl)piperidin-3-yl)-2-(3-phenoxyphenylamino)acetamide)]	100 to 999
O=C(CNc1cccc2c1CCC2)N[C@@H]1CCCN(c2ncnc3[nH]ccc23)C1 [Example 324]	100 to 999
O=C(CNc1cccc(C(F)(F)F)c1F)NC1CCCN(c2ncnc3[nH]ccc23)C1 (centres unmarked) [Example 70, (N-(1-(7H-pyrrolo[2,3-d]pyrimidin-4-yl)piperidin-3-yl)-2-(2-fluoro-3-(trifluoromethyl)phenylamino)acetamide)]	100 to 999
O=C(CNc1ccccc1-n1cccn1)N[C@@H]1CCCN(c2ncnc3[nH]ccc23)C1 [Example 381]	1000 to 10000
COc1ccc(C(C)(C)C)cc1NCC(=O)N[C@@H]1CCCN(c2ncnc3[nH]ccc23)C1 [Example 442]	1000 to 10000
O=C(CNc1ccc(F)c(C(F)(F)F)c1)NC1CCCN(c2ncnc3[nH]ccc23)C1 (centres unmarked) [Example 74, (N-(1-(7H-pyrrolo[2,3-d]pyrimidin-4-yl)piperidin-3-yl)-2-(4-fluoro-3-(trifluoromethyl)phenylamino)acetamide)]	1000 to 10000
O=C1CCc2c(ncnc2N2CCC[C@@H](NC(=O)[C@H](Nc3cc(F)cc(Cl)c3)C3CC3)C2)N1 [Example 135, (R)-2-(3-chloro-5-fluorophenylamino)-2-cyclopropyl-N—((R)-1-(7-oxo-5,6,7,8-tetrahydropyrido[2,3-d]pyrimidin-4-yl)piperidin-3-yl)acetamide]	100 to 999
O=C(N[C@@H]1CCCN(c2ncnc3[nH]ccc23)C1)[C@@H](CC1CC1)Nc1cccc(Cl)c1 [Example 391]	1000 to 10000
O=C(CNC(=O)c1ccccc1Cl)NC1CCCN(c2ncnc3[nH]ccc23)C1 (centres unmarked) [Example 92, (N-(2-(1-(7H-pyrrolo[2,3-d]pyrimidin-4-yl)piperidin-3-ylamino)-2-oxoethyl)-2-chlorobenzamide)]	1000 to 10000
O=C(CNc1ccc(Cl)cc1Cl)N[C@@H]1CCCN(c2ncnc3[nH]ccc23)C1 [Example 317]	100 to 999
C[C@H](O)[C@@H](Nc1cc(F)cc(Cl)c1)C(=O)N[C@@H]1CCCN(c2ncnc3[nH]ccc23)C1 [Example 306]	100 to 999
O=C(CNc1ccc(F)cc1Cl)N[C@@H]1CCCN(c2ncnc3[nH]ccc23)C1 [Example 417]	100 to 999
O=C(NC1CCCN(c2ncnc3[nH]ccc23)C1)[C@@H](CCCO)Nc1ccccc1 (some centres unmarked) [Example 447]	1000 to 10000

The remaining lines, values ahead:

IC50 [nM]	SMILES
100 to 999	CC(C)Oc1ccccc1NCC(=O)N[C@@H]1CCCN(c2ncnc3[nH]ncc23)C1 [Example 367]
100 to 999	O=C(CNc1cccc(N2CCCC2)c1)N[C@@H]1CCCN(c2ncnc3[nH]ccc23)C1 [Example 301]
< 100	O=C(N[C@@H]1CCCN(c2ncnc3[nH]ncc23)C1)[C@H](Nc1cccc(Cl)c1)C1CC1 [Example 231]
< 100	CC[C@H](C)[C@@H](Nc1cc(F)cc(Cl)c1)C(=O)N[C@H]1CN(c2ncnc3[nH]ncc23)CC[C@@H]1C [Example 365]
< 100	C[C@@H](Nc1cc(F)cc(Cl)c1)C(=O)N[C@@H]1CCCN(c2ncnc3[nH]ncc23)C1 [Example 185]
< 100	O=C(CNc1ccccc1S(=O)(=O)c1ccccc1)N[C@@H]1CCCN(c2ncnc3[nH]ccc23)C1 [Example 173]
100 to 999	CC[C@@H](Nc1ccccc1C(C)C)C(=O)N[C@@H]1CCCN(c2ncnc3[nH]ccc23)C1 [Example 249]
< 100	O=C(CNc1cccc2c1CCCC2)N[C@@H]1CCCN(c2ncnc3[nH]ccc23)C1 [Example 254]
< 100	O=C(CNc1cccc2c1CCCC2)NC1CCCN(c2ncnc3[nH]ccc23)C1 (centres unmarked) [Example 41, (N-(1-(7H-pyrrolo[2,3-d]pyrimidin-4-yl)piperidin-3-yl)-2-(5,6,7,8-tetrahydronaphthalen-1-ylamino)acetamide)]
< 100	CC(C)(C)[C@@H](Nc1cc(F)cc(Cl)c1)C(=O)N[C@@H]1CCCN(c2ncnc3[nH]ccc23)C1 [Example 124, (R)—N—((R)-1-(7H-pyrrolo[2,3-d]pyrimidin-4-yl)piperidin-3-yl)-2-(3-chloro-5-fluorophenylamino)-3,3-dimethylbutanamide]
< 100	O=C(CNc1ccccc1S(=O)(=O)c1cccc(C(F)(F)F)c1)N[C@@H]1CCCN(c2ncnc3[nH]ncc23)C1 [Example 187]
< 100	C[C@H](O)[C@@H](Nc1cccc(Cl)c1)C(=O)N[C@@H]1CCCN(c2ncnc3[nH]ccc23)C1 [Example 233]
< 100	CC1CCCCN1S(=O)(=O)c1ccccc1NCC(=O)N[C@@H]1CCCN(c2ncnc3[nH]ncc23)C1 (some centres unmarked) [Example 214]
< 100	CC1CCCC(C)N1S(=O)(=O)c1ccccc1NCC(=O)N[C@@H]1CCCN(c2ncnc3[nH]ncc23)C1 (some centres unmarked) [Example 229]
< 100	CC(C)c1ccccc1NCC(=O)N[C@@H]1CCCN(c2ncnc3[nH]ccc23)C1 [Example 210]
< 100	O=C(CNc1ccccc1Sc1ccccc1)N[C@@H]1CCCN(c2ncnc3[nH]ncc23)C1 [Example 167]
< 100	O=C(CNc1cccc(Br)c1)NC1CCCN(c2ncnc3[nH]ccc23)C1 (centres unmarked) [Example 40, (N-(1-(7H-pyrrolo[2,3-d]pyrimidin-4-yl)piperidin-3-yl)-2-(3-bromophenylamino)acetamide)]
< 100	CCc1cccc(NCC(=O)N[C@@H]2CCCN(c3ncnc4[nH]ccc34)C2)c1 [Example 262]
< 100	CC1CC(C)CN(S(=O)(=O)c2ccccc2NCC(=O)N[C@@H]2CCCN(c3ncnc4[nH]ncc34)C2)C1 (some centres unmarked) [Example 224]
< 100	CC(C)[C@@H](Nc1cc(F)cc(Cl)c1)C(=O)N[C@@H]1CCCN(c2ncnc3[nH]ccc23)C1 [Example 209]
